Data published in ChEMBL document CHEMBL5291721, “A preclinical secondary pharmacology resource illuminates target-adverse drug reaction associations of marketed drugs” (Nat Commun, 2023).

Tests used:
Adenosine receptor A3 = molecular target: T1, Adenosine receptor A3 (Homo sapiens, UniProt P0DMS8)
T1 sequence (P0DMS8 whole entry): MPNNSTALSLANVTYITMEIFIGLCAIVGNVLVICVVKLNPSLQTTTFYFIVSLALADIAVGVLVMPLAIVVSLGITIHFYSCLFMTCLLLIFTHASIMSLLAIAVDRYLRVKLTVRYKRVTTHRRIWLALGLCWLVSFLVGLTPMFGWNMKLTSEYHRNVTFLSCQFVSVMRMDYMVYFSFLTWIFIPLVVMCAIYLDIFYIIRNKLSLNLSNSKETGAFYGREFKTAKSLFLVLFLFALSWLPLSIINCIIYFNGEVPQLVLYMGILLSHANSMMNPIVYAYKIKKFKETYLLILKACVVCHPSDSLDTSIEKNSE

[1] = molecular target: Gamma-aminobutyric acid receptor subunit alpha-1/alpha-2/beta-2/gamma-2 (Homo sapiens, UniProt P14867+P18507+P47869+P47870); assay type: protein-complex assay
Glucocorticoid receptor = molecular target: T2, Glucocorticoid receptor (Homo sapiens, UniProt P04150)
T2 sequence (P04150 whole entry): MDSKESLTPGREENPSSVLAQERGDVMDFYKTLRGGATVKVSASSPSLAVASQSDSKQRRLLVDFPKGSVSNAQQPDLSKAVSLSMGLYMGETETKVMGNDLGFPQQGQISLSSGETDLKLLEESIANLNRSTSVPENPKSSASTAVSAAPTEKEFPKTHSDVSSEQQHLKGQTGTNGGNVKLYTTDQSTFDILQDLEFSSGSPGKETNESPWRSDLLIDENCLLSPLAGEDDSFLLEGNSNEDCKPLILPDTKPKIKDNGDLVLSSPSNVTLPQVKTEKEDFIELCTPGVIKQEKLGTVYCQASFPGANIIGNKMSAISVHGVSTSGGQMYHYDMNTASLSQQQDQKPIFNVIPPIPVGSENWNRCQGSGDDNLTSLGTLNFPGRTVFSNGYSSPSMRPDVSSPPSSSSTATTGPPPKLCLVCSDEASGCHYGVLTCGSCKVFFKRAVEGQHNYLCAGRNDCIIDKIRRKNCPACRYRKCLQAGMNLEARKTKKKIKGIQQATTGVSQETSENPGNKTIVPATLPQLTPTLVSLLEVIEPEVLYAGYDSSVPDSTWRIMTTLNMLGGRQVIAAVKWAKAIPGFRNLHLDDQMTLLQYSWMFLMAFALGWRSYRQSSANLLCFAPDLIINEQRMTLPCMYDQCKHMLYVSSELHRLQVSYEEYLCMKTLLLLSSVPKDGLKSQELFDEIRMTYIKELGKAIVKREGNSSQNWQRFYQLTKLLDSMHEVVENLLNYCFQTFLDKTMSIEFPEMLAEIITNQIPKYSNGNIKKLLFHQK

[2] = molecular target: Neuronal acetylcholine receptor subunit alpha-4 (Homo sapiens, UniProt P43681)
[3] = molecular target: T3, Alpha-2A adrenergic receptor (Homo sapiens, UniProt P08913); assay type: functional, cell-based
T3 sequence (P08913 whole entry): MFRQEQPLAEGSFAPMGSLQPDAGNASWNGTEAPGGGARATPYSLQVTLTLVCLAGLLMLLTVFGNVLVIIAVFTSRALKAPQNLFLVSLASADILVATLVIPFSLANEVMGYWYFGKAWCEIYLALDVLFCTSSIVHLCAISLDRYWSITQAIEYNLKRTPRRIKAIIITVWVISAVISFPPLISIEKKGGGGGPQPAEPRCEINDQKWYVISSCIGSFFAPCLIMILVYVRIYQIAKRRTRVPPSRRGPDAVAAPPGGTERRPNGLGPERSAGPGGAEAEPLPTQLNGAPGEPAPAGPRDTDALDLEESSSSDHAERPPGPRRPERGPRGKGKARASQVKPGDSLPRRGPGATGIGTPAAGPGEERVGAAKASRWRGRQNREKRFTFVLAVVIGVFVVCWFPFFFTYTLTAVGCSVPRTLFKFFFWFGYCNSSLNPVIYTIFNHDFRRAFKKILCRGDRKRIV

[4] = molecular target: T3, Alpha-2A adrenergic receptor; assay type: functional, cell-based; remark: listed apart in the source
Melanocortin receptor 4 = Melanocortin receptor 4 (Homo sapiens, UniProt P32245)
[5] = molecular target: cGMP-inhibited 3',5'-cyclic phosphodiesterase 3A (Homo sapiens, UniProt Q14432); assay type: functional
[6] = molecular target: T4, Corticotropin-releasing factor receptor 2 (Homo sapiens, UniProt Q13324)
T4 sequence (Q13324 whole entry): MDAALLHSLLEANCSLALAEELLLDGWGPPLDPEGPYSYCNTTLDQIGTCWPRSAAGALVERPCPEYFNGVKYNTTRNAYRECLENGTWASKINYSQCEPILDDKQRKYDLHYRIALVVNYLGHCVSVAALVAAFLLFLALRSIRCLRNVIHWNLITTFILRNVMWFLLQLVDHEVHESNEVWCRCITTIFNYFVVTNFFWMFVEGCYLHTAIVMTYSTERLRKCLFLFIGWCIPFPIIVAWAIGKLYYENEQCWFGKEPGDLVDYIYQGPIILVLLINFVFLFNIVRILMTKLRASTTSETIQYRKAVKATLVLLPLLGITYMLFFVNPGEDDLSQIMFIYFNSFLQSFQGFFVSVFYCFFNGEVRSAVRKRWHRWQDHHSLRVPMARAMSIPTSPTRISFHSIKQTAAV
Further: assay procedure not described here.

Gamma-aminobutyric acid receptor subunit alpha-1/alpha-2/beta-2/gamma-2, sequence (P14867 whole entry): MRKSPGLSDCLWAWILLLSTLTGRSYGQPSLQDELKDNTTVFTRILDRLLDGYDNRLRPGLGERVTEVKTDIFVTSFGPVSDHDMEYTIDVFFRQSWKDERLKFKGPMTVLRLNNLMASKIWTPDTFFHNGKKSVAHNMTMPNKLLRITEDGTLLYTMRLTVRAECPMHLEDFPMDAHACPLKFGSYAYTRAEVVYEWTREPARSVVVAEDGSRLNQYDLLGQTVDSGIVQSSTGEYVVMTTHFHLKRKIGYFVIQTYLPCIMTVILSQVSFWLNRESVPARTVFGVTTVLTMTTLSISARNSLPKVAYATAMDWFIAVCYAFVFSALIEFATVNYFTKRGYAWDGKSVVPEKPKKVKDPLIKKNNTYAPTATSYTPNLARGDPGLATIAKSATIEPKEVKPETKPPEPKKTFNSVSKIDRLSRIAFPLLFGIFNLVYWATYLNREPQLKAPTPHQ
Gamma-aminobutyric acid receptor subunit alpha-1/alpha-2/beta-2/gamma-2, sequence (P47870 whole entry): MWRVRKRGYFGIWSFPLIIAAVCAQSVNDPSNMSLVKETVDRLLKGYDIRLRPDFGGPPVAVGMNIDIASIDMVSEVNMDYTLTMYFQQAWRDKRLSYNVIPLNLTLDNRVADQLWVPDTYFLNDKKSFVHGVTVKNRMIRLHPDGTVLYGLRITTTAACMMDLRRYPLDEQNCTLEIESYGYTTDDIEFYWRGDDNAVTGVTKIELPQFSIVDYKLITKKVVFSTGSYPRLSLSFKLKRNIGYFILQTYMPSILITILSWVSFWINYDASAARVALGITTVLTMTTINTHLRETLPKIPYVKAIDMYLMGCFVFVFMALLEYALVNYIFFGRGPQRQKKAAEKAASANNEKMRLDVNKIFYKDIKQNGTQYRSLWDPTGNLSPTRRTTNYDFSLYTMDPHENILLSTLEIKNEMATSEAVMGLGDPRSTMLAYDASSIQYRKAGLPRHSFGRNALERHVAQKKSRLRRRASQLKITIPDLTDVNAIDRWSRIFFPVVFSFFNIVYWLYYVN
Gamma-aminobutyric acid receptor subunit alpha-1/alpha-2/beta-2/gamma-2, sequence (P18507 whole entry): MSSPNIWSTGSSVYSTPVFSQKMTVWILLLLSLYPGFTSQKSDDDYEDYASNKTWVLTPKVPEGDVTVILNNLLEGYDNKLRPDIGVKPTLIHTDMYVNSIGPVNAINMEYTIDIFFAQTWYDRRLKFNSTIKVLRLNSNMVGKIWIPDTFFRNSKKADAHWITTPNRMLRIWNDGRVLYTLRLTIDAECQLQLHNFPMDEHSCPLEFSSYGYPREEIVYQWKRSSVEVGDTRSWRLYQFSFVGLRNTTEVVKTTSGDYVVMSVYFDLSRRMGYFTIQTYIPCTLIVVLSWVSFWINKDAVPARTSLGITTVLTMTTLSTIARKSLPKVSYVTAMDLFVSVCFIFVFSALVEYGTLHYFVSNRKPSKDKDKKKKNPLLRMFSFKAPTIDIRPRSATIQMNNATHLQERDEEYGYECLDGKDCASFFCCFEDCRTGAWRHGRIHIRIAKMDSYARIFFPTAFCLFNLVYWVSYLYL
Gamma-aminobutyric acid receptor subunit alpha-1/alpha-2/beta-2/gamma-2, sequence (P47869 whole entry): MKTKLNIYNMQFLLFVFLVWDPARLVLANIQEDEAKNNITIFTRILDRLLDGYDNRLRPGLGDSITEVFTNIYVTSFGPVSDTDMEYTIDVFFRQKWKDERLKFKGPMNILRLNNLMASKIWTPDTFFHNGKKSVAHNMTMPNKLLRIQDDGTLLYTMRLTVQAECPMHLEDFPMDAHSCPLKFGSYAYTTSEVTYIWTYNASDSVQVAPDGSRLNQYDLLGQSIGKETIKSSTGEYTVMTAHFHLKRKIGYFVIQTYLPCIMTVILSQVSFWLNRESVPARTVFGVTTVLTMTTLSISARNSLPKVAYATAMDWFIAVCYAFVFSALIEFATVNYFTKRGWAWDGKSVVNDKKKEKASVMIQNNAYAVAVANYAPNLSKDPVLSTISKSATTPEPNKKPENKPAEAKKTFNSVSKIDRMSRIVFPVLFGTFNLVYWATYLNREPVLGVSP
cGMP-inhibited 3',5'-cyclic phosphodiesterase 3A, sequence (Q14432 whole entry): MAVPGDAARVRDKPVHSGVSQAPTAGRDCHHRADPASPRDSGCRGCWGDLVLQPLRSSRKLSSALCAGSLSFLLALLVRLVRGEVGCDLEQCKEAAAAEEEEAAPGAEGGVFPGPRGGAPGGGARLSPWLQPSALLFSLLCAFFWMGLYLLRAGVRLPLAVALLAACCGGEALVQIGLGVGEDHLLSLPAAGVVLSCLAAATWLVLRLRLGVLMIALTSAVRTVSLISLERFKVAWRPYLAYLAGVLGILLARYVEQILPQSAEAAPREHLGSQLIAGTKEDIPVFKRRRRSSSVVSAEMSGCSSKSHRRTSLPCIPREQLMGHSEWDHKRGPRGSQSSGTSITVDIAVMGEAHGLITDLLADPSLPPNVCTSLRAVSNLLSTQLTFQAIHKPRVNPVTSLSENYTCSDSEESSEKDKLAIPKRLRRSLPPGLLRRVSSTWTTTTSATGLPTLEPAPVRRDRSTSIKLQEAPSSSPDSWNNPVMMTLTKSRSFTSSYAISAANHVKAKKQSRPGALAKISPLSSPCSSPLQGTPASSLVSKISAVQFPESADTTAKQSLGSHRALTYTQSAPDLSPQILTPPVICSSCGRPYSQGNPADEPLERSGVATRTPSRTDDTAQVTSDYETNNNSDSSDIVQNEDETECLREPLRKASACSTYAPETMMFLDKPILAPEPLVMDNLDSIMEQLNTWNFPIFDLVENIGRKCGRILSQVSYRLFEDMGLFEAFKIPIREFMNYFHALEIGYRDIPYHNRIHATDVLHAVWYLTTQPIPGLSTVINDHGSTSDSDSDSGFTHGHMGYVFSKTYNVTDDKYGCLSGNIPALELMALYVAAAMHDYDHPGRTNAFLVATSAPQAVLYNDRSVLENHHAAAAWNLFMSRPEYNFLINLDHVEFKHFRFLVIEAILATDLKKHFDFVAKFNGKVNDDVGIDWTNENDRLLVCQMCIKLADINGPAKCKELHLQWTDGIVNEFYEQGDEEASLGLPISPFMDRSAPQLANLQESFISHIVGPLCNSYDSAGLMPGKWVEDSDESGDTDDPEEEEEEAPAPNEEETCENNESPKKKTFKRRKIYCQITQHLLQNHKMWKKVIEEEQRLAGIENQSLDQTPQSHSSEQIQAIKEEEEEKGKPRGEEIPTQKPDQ
Melanocortin receptor 4, sequence (P32245 whole entry): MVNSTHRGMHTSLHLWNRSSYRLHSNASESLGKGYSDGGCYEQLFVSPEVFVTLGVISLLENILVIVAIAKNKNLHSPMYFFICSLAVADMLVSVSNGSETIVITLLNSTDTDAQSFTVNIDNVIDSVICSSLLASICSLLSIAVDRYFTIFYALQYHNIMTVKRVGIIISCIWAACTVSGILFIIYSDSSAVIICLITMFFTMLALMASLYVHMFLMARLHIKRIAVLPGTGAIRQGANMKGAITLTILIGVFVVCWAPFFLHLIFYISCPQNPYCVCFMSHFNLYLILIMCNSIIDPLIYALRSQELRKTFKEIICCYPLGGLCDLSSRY
Neuronal acetylcholine receptor subunit alpha-4, sequence (P43681 whole entry): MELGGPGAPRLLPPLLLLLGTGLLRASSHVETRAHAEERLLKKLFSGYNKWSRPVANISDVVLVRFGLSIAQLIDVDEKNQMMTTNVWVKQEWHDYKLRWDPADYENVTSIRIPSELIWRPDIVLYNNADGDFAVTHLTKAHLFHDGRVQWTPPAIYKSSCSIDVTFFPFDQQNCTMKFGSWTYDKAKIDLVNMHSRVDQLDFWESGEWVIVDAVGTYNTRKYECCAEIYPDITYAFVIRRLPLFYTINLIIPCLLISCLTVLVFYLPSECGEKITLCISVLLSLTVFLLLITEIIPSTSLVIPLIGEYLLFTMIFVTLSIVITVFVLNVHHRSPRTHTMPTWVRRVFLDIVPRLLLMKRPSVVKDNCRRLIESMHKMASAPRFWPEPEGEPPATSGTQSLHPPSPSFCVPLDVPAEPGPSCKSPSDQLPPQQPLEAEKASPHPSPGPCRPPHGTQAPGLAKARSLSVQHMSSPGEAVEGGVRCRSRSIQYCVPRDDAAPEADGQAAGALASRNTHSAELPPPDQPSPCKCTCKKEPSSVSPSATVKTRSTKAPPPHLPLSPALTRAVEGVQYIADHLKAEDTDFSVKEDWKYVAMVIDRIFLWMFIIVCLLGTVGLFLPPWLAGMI

SMILES	AC50 (Adenosine receptor A3) [µM]	AC50 [1] [µM]	also measured
CC[C@@H]1C[C@]1(NC(=O)[C@@H]1C[C@@H]2CN1C(=O)[C@H](C(C)(C)C)NC(=O)OCC(C)(C)CCCCc1cccc3c1CN(C3)C(=O)O2)C(=O)NS(=O)(=O)C1CC1	12.6	–	–
CC(=O)NO [ACETOHYDROXAMIC ACID]	> 30	–	–
CC(=O)NCCCCCC(=O)O [ACEXAMIC ACID]	> 30	> 30	–
C=C(C)CNc1ccc(C(C)C(=O)O)cc1 (stereo not given) [ALMINOPROFEN]	> 30	> 30	–
C[C@H]1CN(C[C@H](Cc2ccccc2)C(=O)NCC(=O)O)CC[C@@]1(C)c1cccc(O)c1 [ALVIMOPAN]	> 30	> 30	–
O=C(O)c1ccccc1 [BENZOIC ACID]	> 30	> 30	–
CC=CC1=C(C(=O)O)N2C(=O)[C@@H](NC(=O)[C@H](N)c3ccc(O)cc3)[C@H]2SC1 [CEFPROZIL]	–	–	AC50 (Glucocorticoid receptor): > 30 µM; AC50 [2]: > 30 µM; AC50 [3]: > 30 µM; AC50 [4]: > 30 µM; AC50 (Melanocortin receptor 4): > 30 µM; AC50 [5]: > 30 µM
CCCNC(=O)NS(=O)(=O)c1ccc(Cl)cc1 [CHLORPROPAMIDE]	–	–	AC50 (Glucocorticoid receptor): > 30 µM; AC50 [6]: > 30 µM; AC50 [2]: > 10 µM; AC50 [3]: > 10 µM; AC50 [4]: > 10 µM; AC50 (Melanocortin receptor 4): > 30 µM; AC50 [5]: > 30 µM
Cc1cc(C2CCCCC2)n(O)c(=O)c1 [CICLOPIROX]	> 30	> 30	AC50 [2]: > 30 µM; AC50 [5]: > 30 µM
C[C@H]1O[C@@H](O[C@H]2CC[C@@]3(C)[C@H](CC[C@@H]4[C@@H]3C[C@@H](O)[C@]3(C)[C@@H](C5=CC(=O)OC5)CC[C@]43O)C2)C[C@H](O)[C@@H]1O[C@H]1C[C@H](O)[C@H](O[C@H]2C[C@H](O)[C@H](O[C@@H]3O[C@H](CO)[C@@H](O)[C@H](O)[C@H]3O)[C@@H](C)O2)[C@@H](C)O1 [DESLANOSIDE]	> 30	> 30	–
CCCCc1oc2ccc(NS(C)(=O)=O)cc2c1C(=O)c1ccc(OCCCN(CCCC)CCCC)cc1 [DRONEDARONE]	1.54	–	–
CC(C(=O)O)c1cccc(Oc2ccccc2)c1 (stereo not given) [FENOPROFEN]	> 30	> 30	–
CC(C)C(=O)Oc1ccc(CO)cc1[C@H](CCN(C(C)C)C(C)C)c1ccccc1 [FESOTERODINE]	> 30	–	–
CC1(C)O[C@@H]2C[C@H]3[C@@H]4C[C@H](F)C5=CC(=O)C=C[C@]5(C)[C@@]4(F)[C@@H](O)C[C@]3(C)[C@]2(C(=O)CO)O1 [FLUOCINOLONE ACETONIDE]	> 30	> 30	–
O=C(O)P(=O)(O)O [FOSCARNET]	> 30	–	–
N=C(N)N/N=C/c1c(Cl)cccc1Cl [GUANABENZ]	> 30	> 30	–
C[N+](C)(CCCCCC[N+](C)(C)C1c2ccccc2-c2ccccc21)C1c2ccccc2-c2ccccc21 [HEXAFLUORENIUM]	> 30	–	–
CCCCC(CC)CN1CN(CC(CC)CCCC)CC(C)(N)C1 (stereo not given) [HEXETIDINE]	10.8	–	–
Cc1cc(=O)oc2cc(O)ccc12 [HYMECROMONE]	> 30	–	–
COc1c2occc2c(OC)c2c(=O)cc(C)oc12 [KHELLIN]	> 30	–	–
CC(C)[C@@H]1CC[C@@H](C)C[C@H]1O [LEVOMENTHOL]	> 30	> 30	–
COC(=O)[C@@H](N)Cc1ccc(O)c(O)c1 [MELEVODOPA]	> 30	–	–

SMILES	AC50 (Adenosine receptor A3) [µM]	AC50 [1] [µM]	also measured
C[N+]1(C)CCCC(OC(=O)C(O)(c2ccccc2)c2ccccc2)C1 (stereo not given) [MEPENZOLATE]	> 30	> 30	–
C=N[C@@H](C(=O)N[C@@H]1C(=O)N2[C@@H]1SC(C)(C)[C@@H]2C(=O)O)c1ccccc1 [METAMPICILLIN]	> 30	–	–
O=C(NNCS(=O)(=O)O)c1ccncc1 [METHANIAZIDE]	> 30	–	–
Cc1cc(=O)[nH]c(=S)[nH]1 [METHYLTHIOURACIL]	> 30	–	–
CN(C)c1ccc(O)c2c1C[C@H]1C[C@H]3[C@H](N(C)C)C(O)=C(C(N)=O)C(=O)[C@@]3(O)C(O)=C1C2=O [MINOCYCLINE]	> 30	> 30	–
CCNC(=O)/C=C(C)/C=C/C=C(C)/C=C/c1c(C)cc(OC)c(C)c1C [MOTRETINIDE]	2.24	> 30	–
CNC(=C[N+](=O)[O-])NCCSCc1csc(CN(C)C)n1 [NIZATIDINE]	–	–	AC50 (Glucocorticoid receptor): > 10 µM; AC50 [2]: > 10 µM; AC50 [3]: > 10 µM; AC50 [4]: > 10 µM; AC50 (Melanocortin receptor 4): > 10 µM; AC50 [5]: > 30 µM
C=CC(=O)Nc1cccc(Oc2nc(Nc3ccc(N4CCN(C)CC4)cc3)nc3ccsc23)c1 [OLMUTINIB]	0.003	–	–
COc1ccc2[nH]c([S+]([O-])Cc3ncc(C)c(OC)c3C)nc2c1 (stereo not given) [OMEPRAZOLE]	2.88	> 30	–
CCCCC1C(=O)N(c2ccccc2)N(c2ccc(O)cc2)C1=O (stereo not given) [OXYPHENBUTAZONE ANHYDROUS]	> 30	–	–
O=C(O)CN(CCN(CC(=O)O)CC(=O)O)CCN(CC(=O)O)CC(=O)O [PENTETIC ACID]	> 30	–	–
Nc1cccc2c1C(=O)N(C1CCC(=O)NC1=O)C2=O (stereo not given) [POMALIDOMIDE]	> 30	–	–
CCCc1cc(=O)[nH]c(=S)[nH]1 [PROPYLTHIOURACIL]	–	–	AC50 [2]: > 10 µM; AC50 [3]: > 10 µM; AC50 [4]: > 10 µM; AC50 (Melanocortin receptor 4): > 10 µM; AC50 [5]: > 30 µM
C[Se]CC[C@H](N)C(=O)O [SELENOMETHIONINE]	> 30	–	–
C[N+](C)(C)CCOC(=O)CCC(=O)OCC[N+](C)(C)C [SUXAMETHONIUM]	> 30	> 30	–
Cc1ccsc1C(=CCCN1CCC[C@@H](C(=O)O)C1)c1sccc1C [TIAGABINE]	> 30	> 30	–
Cc1ccc(C(=O)c2ccc(CC(=O)O)n2C)cc1 [TOLMETIN]	> 30	> 30	–
Cc1ccccc1C(=O)Nc1ccc(C(=O)N2CCCC(O)c3cc(Cl)ccc32)c(C)c1 (stereo not given) [TOLVAPTAN]	11	> 30	–
C[C@]12C=CC(=O)C=C1CC[C@H]1[C@@H]3C[C@@H](O)[C@](O)(C(=O)CO)[C@@]3(C)C[C@H](O)[C@@]12F [TRIAMCINOLONE]	> 30	> 30	AC50 (Glucocorticoid receptor): 0.0091 µM
CC[C@]12CCCN3CCc4c(n(c5ccccc45)[C@@](O)(C(=O)OC)C1)[C@@H]32 [VINCAMINE]	> 30	–	–
CCC1=C[C@@H]2CN(C1)Cc1c([nH]c3ccccc13)[C@@](C(=O)OC)(c1cc3c(cc1OC)N(C)[C@H]1[C@@](O)(C(=O)OC)[C@H](OC(C)=O)[C@]4(CC)C=CCN5CC[C@]31[C@@H]54)C2 [VINORELBINE]	> 30	> 30	–
COc1cc(C(=O)NS(=O)(=O)c2ccccc2C)ccc1Cc1cn(C)c2ccc(NC(=O)OC3CCCC3)cc12 [ZAFIRLUKAST]	–	–	AC50 (Glucocorticoid receptor): 24.9 µM; AC50 [2]: > 10 µM; AC50 (Melanocortin receptor 4): > 10 µM; AC50 [5]: 14 µM
